Literature values in patent publication US5707620A (priority 1995, dated 1998).

System: hemagglutinins
Details: cited from earlier work

| SMILES | inhibition of activity of hemagglutinins |
| --- | --- |
| N=C(N)NCCC[C@H](N)C(=O)O [arginine] | inhibited by arginine |
| NCCCC[C@H](N)C(=O)O [lysine] | to a lesser extent, lysine |
